Results reported in PubChem BioAssay (NCI).
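All cell lines were grown in 96-well plates and treated with compound for 48 hours. TGI denotes the concentration required for complete inhibition of growth.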

Tests used:
Assay in all cases: DTP human tumour cell line panel, 48 h
[1] = tested on: HCC-2998 colon
[2] = tested on: BT-549 breast
[3] = tested on: LOX IMVI melanoma
[4] = tested on: A549 NSCLC
[5] = tested on: KM12 colon
[6] = tested on: A498 renal
[7] = tested on: EKVX NSCLC
[8] = tested on: CAKI-1 renal
[9] = tested on: SK-MEL-5 melanoma
[10] = tested on: CCRF-CEM leukemia
[11] = tested on: SN12C renal
[12] = tested on: MDA-MB-231 breast
[13] = tested on: HOP-62 NSCLC
[14] = tested on: HL-60(TB) leukemia
[15] = tested on: COLO 205 colon
[16] = tested on: M14 melanoma
[17] = tested on: HCT-15 colon
[18] = tested on: SF-295 CNS
[19] = tested on: MDA-N

SMILES | TGI [1] [µM] | TGI [2] [µM] | TGI [3] [µM] | TGI [4] [µM] | TGI [5] [µM] | TGI [6] [µM] | TGI [7] [µM] | TGI [8] [µM] | TGI [9] [µM] | TGI [10] [µM] | TGI [11] [µM] | TGI [12] [µM] | TGI [13] [µM] | TGI [14] [µM] | TGI [15] [µM] | TGI [16] [µM] | TGI [17] [µM] | TGI [18] [µM] | TGI [19] [µM]
COC(=O)Nc1nc2ccc(S(=O)(=O)SC)cc2[nH]1 | 42.4 | 22.7 | 22.1 | > 100 | > 100 | 99.7 | 62.5 | > 100 | > 100 | 61.4 | 37.1 | 40.1 | > 100 | 8.11 | > 100 | 18.4 | 19.4 | > 100 | 
Cn1c(O)c(C(=O)NC2CCCCC2)c(=O)n(C)c1=S |  |  | 28.5 | 17.4 | 27.7 | 13 |  | 26.5 | 17 | > 100 | 59.9 |  | 16.8 |  | 4.42 | 21.4 | 25.9 | 17.8 | 
CC(CC[C@@]1(C)C(=O)CCC2O[C@]21C)[C@H]1C[C@@H](c2ccoc2)OC1=O (some centres not stated) | > 100 |  | 48.2 | > 100 | > 100 | > 100 | > 100 | 71.8 | > 100 | 61.3 | 79.9 |  | > 100 | 47.6 | 52.1 | > 100 | > 100 | > 100 | > 100
O=C1NC2O[C@H](CNC(=O)c3cc(Br)c[nH]3)CC2(O)N1 (mixture of isomers) |  | > 100 |  | > 100 | > 100 | > 100 | > 100 | > 100 | > 100 |  | > 100 | > 100 | > 100 | > 100 | > 100 | > 100 | > 100 | > 100 | 
CC(=O)O[C@H]1C(=O)[C@@]2(C)[C@H]([C@H](OC(=O)c3ccoc3)[C@]3(O)C[C@H](OC(=O)[C@H](O)[C@@H](NC(=O)c4ccccc4)c4ccccc4)C(C)=C1C3(C)C)[C@]1(OC(C)=O)CO[C@@H]1C[C@@H]2O | 0.998 | > 12.5 | > 12.5 | > 12.5 | > 12.5 | > 12.5 | > 12.5 | > 12.5 |  | > 2.88 | > 12.5 | > 12.5 | > 12.5 |  |  | > 12.5 | > 12.5 | > 12.5 | 
CCOC(=O)c1c(N2CCOCC2)[nH]c(=O)c(C(c2c(Cl)cccc2Cl)c2c(O)c(C(=O)OCC)c(N3CCOCC3)[nH]c2=O)c1O | 34 | 19.6 | 9.08 | 32.5 | 33.2 | 20.9 | 32.9 | 5.24 | 16.1 | 3.56 | 11.4 | 24.9 | 30.4 | 4.37 | 14.9 | 5.15 | 15.6 | 30.6 | 
CC(=O)OC1C(Oc2c(C)cc3c(c2O)[C@@H](C)CC[C@@H]3[C@@H](C)CCC=C(C)C)OCC(O)C1O (some centres not stated) |  |  | 32.5 | 30.2 | 31.2 | 36.5 |  | 36 | 32.1 | 66.9 | 32.2 | 38.7 | 32.2 | 41.7 | 30.7 | 30.9 | 34.1 | 35.3 | 36
CN(C)CC1CCCC(CN(C)C)C1OC(=O)c1ccccc1 (configuration not stated) | > 100 |  | > 100 | > 100 | > 100 | > 100 | > 100 | > 100 | > 100 | > 100 | > 100 |  | > 100 | > 100 | > 100 | > 100 | > 100 | > 100 | 
COc1cc(OC)c2c(C)cc(=O)oc2c1 |  |  | > 100 | > 100 | > 100 | 76.5 | > 100 |  | > 100 | > 100 | > 100 | > 100 | > 100 |  | > 100 | > 100 | > 100 | > 100 | > 100
COc1cc(Br)cc2cc(-c3cn4c(n3)sc3ccccc34)c(=O)oc12 |  | 70.7 | 56.4 | > 75 | > 75 | 51 | 52.1 | > 75 | > 75 | > 75 | > 75 | 72.5 | > 75 | 36.2 | > 75 | > 75 | > 75 | 58.4 | 
O=C(Nc1nnc(-c2ccc(Cl)cc2)o1)C(SC(=S)N1CCOCC1)c1ccccc1 (configuration not stated) |  | 62.5 | 48.2 | 81.3 | > 100 | 56.5 | 59.7 | > 100 | 26.6 | > 100 | 42.7 | > 100 | > 100 | 25.7 | 28.8 | > 100 | > 100 | 94.4 | 
